Assay results as given in ChEMBL document CHEMBL1155013, “Design, synthesis, and evaluation of fused heterocyclic analogs of SCH 58261 as adenosine A2A receptor antagonists” (Bioorg Med Chem Lett, 2008).

Assays:
Assay type in all cases: ADME, organism-based
[1] = AUC (0 to 6 hrs) in rat at 3 mg/kg, po; parameters: time < 6 hr, dose 3 mg/kg, route oral; conditions: plasma
[2] = Half life in rat at 3 mg/kg, po; parameters: dose 3 mg/kg, route oral; conditions: in vivo
[3] = Plasma clearance in rat at 3 mg/kg, po; parameters: dose 3 mg/kg, route oral
[4] = AUC in rat at 3 mg/kg, po; parameters: dose 3 mg/kg, route oral; conditions: plasma
[5] = Bioavailability in rat at 3 mg/kg, po; conditions: in vivo

Row | AUC(0-t) at 6 h [1] [ng·h/mL] | SMILES | also measured
1 | 688 | COc1ccc2c(c1)CCN(CCn1ncc3c1nc(N)n1nc(-c4ccco4)nc31)C2 | 
2 | 357 | COc1ccc2c(c1)CN(CCn1ncc3c1nc(N)n1nc(-c4ccco4)nc31)CC2 | 
3 | 215 | COCCOc1cccc2c1CN(CCn1ncc3c1nc(N)n1nc(-c4ccco4)nc31)C2 | 
4 | 199 | COc1ccc2c(c1)CN(CCn1ncc3c1nc(N)n1nc(-c4ccco4)nc31)C2 | 
5 | 60 | Nc1nc2c(cnn2CCN2CCc3ccccc3C2)c2nc(-c3ccco3)nn12 | 
6 | 214 | Nc1nc2c(cnn2CCN2CCc3ncc(C4CC4)cc3C2)c2nc(-c3ccco3)nn12 | 
7 | 2020 | Nc1nc2c(cnn2CCN2CCc3ncc(Br)cc3C2)c2nc(-c3ccco3)nn12 | 
8 | 477 | COCCOc1cnc2c(c1)CN(CCn1ncc3c1nc(N)n1nc(-c4ccco4)nc31)CC2 | 
9 | 103 | COCCOc1ccc2c(c1)CCN(CCn1ncc3c1nc(N)n1nc(-c4ccco4)nc31)CC2 | 
10 | 1790 | Nc1nc2c(cnn2CCN2CCc3ncccc3C2)c2nc(-c3ccco3)nn12 | 
11 | 287 | Nc1nc2c(cnn2CCN2Cc3ccccc3C2)c2nc(-c3ccco3)nn12 | 
12 | 48 | Nc1nc2c(cnn2CCN2CCc3ccccc3CC2)c2nc(-c3ccco3)nn12 | 
13 | 1240 | Nc1nc2c(cnn2CCN2CCc3nc(C(F)(F)F)ccc3C2)c2nc(-c3ccco3)nn12 | 
14 | 31 | COCCOc1cccc2c1CN(CCn1ncc3c1nc(N)n1nc(-c4ccco4)nc31)CC2 | 
15 | 467 | Nc1nc2c(cnn2CCN2CCc3ncncc3C2)c2nc(-c3ccco3)nn12 | 
16 | 3490 | Cc1cnc2c(c1)CN(CCn1ncc3c1nc(N)n1nc(-c4ccco4)nc31)CC2 | half-life [2]: 11.3 h; CL/F [3]: 4.7 mL/min/kg; AUC [4]: 7980 ng·h/mL; bioavailability [5]: 71%
